pIC50: −log10 of the molar value. Where two headings read alike, the source gives them in different places.
How the values were obtained:
[1] = system: Plasmodium falciparum 3D7-A10 parasites; assay: Stage specificity assay (8-h exposure of synchronized stages, IC50^8h); type: cell-based
[2] = system: asynchronous 3D7-A10 parasite cultures; assay: Standard 72-h exposure asexual blood stage susceptibility assay (IC50^72h); type: cell-based, Plasmodium falciparum; conditions: Plasmodium falciparum, 3D7, 72 h, read-out: Overall (72hr assay) Mean IC50 (IC50^72h)
[3] = system: 3D7-MR4 trophozoite parasite-infected RBCs; assay: Metabolomic profiling (hydrophilic metabolite changes, UHPLC-MS); type: cell-based, Plasmodium falciparum

Cc1ccc(Oc2ncccc2C(=O)Nc2cccc3cccnc23)c(C)c1 [MMV020746]
Ratio lowest IC50 8hr/IC50 72hr ([1]; 3D7-A10): 221.5
IC50 ([1]; Plasmodium falciparum, 3D7, read-out: Early rings IC50 (IC50^8h), 8-h exposure 0–8 hr, bound given in μM): > 25 µM
pIC50 ([1]; Plasmodium falciparum, 3D7, read-out: Early trophozoites Mean IC50 (IC50^8h), 8-h exposure 16–24 hr, 3D7-A10, survival at 60 h): 4.90
IC50 ([1]; Plasmodium falciparum, 3D7, read-out: Late rings IC50 (IC50^8h), 8-h exposure 8–16 hr, bound given in μM): > 25 µM
IC50 ([1]; Plasmodium falciparum, 3D7, read-out: Late trophozoites IC50 (IC50^8h), 8-h exposure 24–32 hr, bound given in μM): > 25 µM
IC50 ([1]; Plasmodium falciparum, 3D7, read-out: Schizonts IC50 (IC50^8h), 8-h exposure 32–40 hr, bound given in μM): > 25 µM
IC50^8h relative to IC50^72h value ([1]; most susceptible stages): > 28 fold
pIC50 [2]: 7.25
peptide levels (hemoglobin catabolism signature) ([3]; 10 × IC50^72h, 2.5 hr, trophozoites): decreased peptide levels
Log2(fold changes) 3-phosphoglycerate ([3]; metabolite 3-phosphoglycerate, log2 fold change): -0.8487
Log2(fold changes) 4-Pyridoxic acid ([3]; metabolite 4-Pyridoxic acid, log2 fold change): -0.4495
Log2(fold changes) 4-aminobutyrate ([3]; metabolite 4-aminobutyrate, log2 fold change): -0.1236
Log2(fold changes) 4-phosphopantetheine ([3]; metabolite 4-phosphopantetheine, log2 fold change): 0.0000
Log2(fold changes) 4-phosphopantothenate ([3]; metabolite 4-phosphopantothenate, log2 fold change): -0.7722
Log2(fold changes) 5-aminopentanoic acid ([3]; metabolite 5-aminopentanoic acid, log2 fold change): 0.0000
Log2(fold changes) 5-methyl-THF ([3]; metabolite 5-methyl-THF, log2 fold change): 0.0000
Log2(fold changes) 5-phosphoribosyl-1-pyrophosphate ([3]; metabolite 5-phosphoribosyl-1-pyrophosphate, log2 fold change): 0.0000
Log2(fold changes) 6-phospho-D-gluconate ([3]; metabolite 6-phospho-D-gluconate, log2 fold change): -0.3888
Log2(fold change) HVDD ([3]; metabolite HVDD): -4.2936
Log2(fold change) Hydroxyisocaproic acid ([3]; metabolite Hydroxyisocaproic acid): 0.0000
Log2(fold change) IDP ([3]; metabolite IDP): 0.0000
Log2(fold change) IMP ([3]; metabolite IMP): -0.0604
Log2(fold change) Inositol ([3]; metabolite Inositol): 0.0000
Log2(fold change) Isopentyl-PP ([3]; metabolite Isopentyl-PP): -0.6932
Log2(fold change) L-arginino-succinate ([3]; metabolite L-arginino-succinate): -0.2156
Log2(fold change) LD ([3]; metabolite LD): 0.1860
Log2(fold change) Myristoyl/tetradecanoyl-CoA ([3]; metabolite Myristoyl/tetradecanoyl-CoA): 0.0000
Log2(fold change) N-Acetyl-L-alanine ([3]; metabolite N-Acetyl-L-alanine): 0.0990
Log2(fold change) N-acetyl-L-ornithine ([3]; metabolite N-acetyl-L-ornithine): -1.5863
Log2(fold change) N-acetyl-glucosamine-1/6-phosphate ([3]; metabolite N-acetyl-glucosamine-1/6-phosphate): 0.3354
Log2(fold change) N-acetyl-glutamate ([3]; metabolite N-acetyl-glutamate): -0.0291
Log2(fold change) N-acetyl-glutamine ([3]; metabolite N-acetyl-glutamine): 0.3326
Log2(fold change) N-carbamoyl-L-aspartate ([3]; metabolite N-carbamoyl-L-aspartate): -0.0111
Log2(fold change) NAD+ ([3]; metabolite NAD+): -0.2290
Log2(fold change) NADH ([3]; metabolite NADH): 3.2383
Log2(fold change) NADP+ ([3]; metabolite NADP+): -0.2621
Log2(fold change) NADPH ([3]; metabolite NADPH): 2.9387
Log2(fold change) O-acetyl-L-serine ([3]; metabolite O-acetyl-L-serine): -0.1299
Log2(fold change) Octoluse 8/1P ([3]; metabolite Octoluse 8/1P): -0.0750
Log2(fold change) Octoluse Bisphosphate ([3]; metabolite Octoluse Bisphosphate): 0.1477
Log2(fold change) PD ([3]; metabolite PD): -2.6591
Log2(fold change) PE ([3]; metabolite PE): -2.3902
Log2(fold change) PEE ([3]; metabolite PEE): -2.3026
Log2(fold change) PEEK ([3]; metabolite PEEK): -2.5604
Log2(fold change) PVNF ([3]; metabolite PVNF): -4.8059
Log2(fold change) Pyroglutamic acid ([3]; metabolite Pyroglutamic acid): 0.1917
Log2(fold change) Pyrophosphate ([3]; metabolite Pyrophosphate): 0.0000
Log2(fold change) Ribose-5-phosphate ([3]; metabolite Ribose-5-phosphate): -0.7820
Log2(fold change) S-adenosyl-L-homocysteine ([3]; metabolite S-adenosyl-L-homocysteine): -0.0800
Log2(fold change) S-adenosyl-L-methioninamine ([3]; metabolite S-adenosyl-L-methioninamine): -2.2715
Log2(fold change) S-adenosyl-L-methionine ([3]; metabolite S-adenosyl-L-methionine): 0.0000
Log2(fold change) S-methyl-5'-thioadenosine ([3]; metabolite S-methyl-5'-thioadenosine): 0.5248
Log2(fold change) SD ([3]; metabolite SD): -1.2335
Log2(fold change) SDL ([3]; metabolite SDL): 0.0000
Log2(fold change) SID ([3]; metabolite SID): -1.9821
Log2(fold change) Sedoheptulose bisphosphate ([3]; metabolite Sedoheptulose bisphosphate): -0.9337
Log2(fold change) Thiamine pyrophosphate ([3]; metabolite Thiamine pyrophosphate): -0.1414
Log2(fold changes) UDP-D-glucose ([3]; metabolite UDP-D-glucose, log2 fold change): 0.0347
Log2(fold changes) UDP-D-glucuronate ([3]; metabolite UDP-D-glucuronate, log2 fold change): -0.1265
Log2(fold changes) UDP-N-acetyl-glucosamine ([3]; metabolite UDP-N-acetyl-glucosamine, log2 fold change): -0.1353
Log2(fold changes) UDP ([3]; metabolite UDP, log2 fold change): -0.5234
Log2(fold changes) UMP ([3]; metabolite UMP, log2 fold change): 0.1786
Log2(fold changes) UTP ([3]; metabolite UTP, log2 fold change): 0.0000
Log2(fold change) hydroxyphenylpyruvate ([3]; metabolite hydroxyphenylpyruvate): 0.0000
Log2(fold change) hydroxyproline/Aminolevulinate ([3]; metabolite hydroxyproline/Aminolevulinate): -0.2593
Log2(fold change) hypoxanthine ([3]; metabolite hypoxanthine): 0.0518
Log2(fold change) indole ([3]; metabolite indole): 0.0000
Log2(fold change) inosine ([3]; metabolite inosine): -0.1327
Log2(fold change) isoleucine ([3]; metabolite isoleucine): 0.0000
Log2(fold change) lactate ([3]; metabolite lactate): -0.6990
Log2(fold change) leucine ([3]; metabolite leucine): 0.0000
Log2(fold change) lysine ([3]; metabolite lysine): -2.2531
Log2(fold change) malate ([3]; metabolite malate): -0.6987
Log2(fold change) maleic acid ([3]; metabolite maleic acid): -0.7709
Log2(fold change) methionine ([3]; metabolite methionine): -0.0286
Log2(fold change) myo-inositol ([3]; metabolite myo-inositol): -0.7655
Log2(fold change) nicotinamide mononucleotide ([3]; metabolite nicotinamide mononucleotide): -0.5765
Log2(fold change) nicotinate ([3]; metabolite nicotinate): -0.1328
Log2(fold change) ornithine ([3]; metabolite ornithine): -0.3857
Log2(fold change) orotate ([3]; metabolite orotate): -0.1387
Log2(fold change) orotidine-5'-phosphate ([3]; metabolite orotidine-5'-phosphate): 0.0782
Log2(fold change) oxaloacetate ([3]; metabolite oxaloacetate): -0.6442
Log2(fold change) p-aminobenzoate ([3]; metabolite p-aminobenzoate): 0.0000
Log2(fold change) p-hydroxybenzoate ([3]; metabolite p-hydroxybenzoate): 0.0000
Log2(fold change) pantothenate ([3]; metabolite pantothenate): -0.1112
Log2(fold change) phenylalanine ([3]; metabolite phenylalanine): -0.4829
Log2(fold change) phenylpyruvate ([3]; metabolite phenylpyruvate): 0.0000
Log2(fold change) phosphoenolpyruvate ([3]; metabolite phosphoenolpyruvate): -0.5858
Log2(fold change) prephenate ([3]; metabolite prephenate): -0.3824
Log2(fold change) proline ([3]; metabolite proline): -0.5702
Log2(fold change) pyridoxine ([3]; metabolite pyridoxine): -0.1642
Log2(fold change) pyruvate ([3]; metabolite pyruvate): -1.5001
Log2(fold change) riboflavin ([3]; metabolite riboflavin): 0.4413
Log2(fold change) ribose ([3]; metabolite ribose): -0.0174
Log2(fold change) ribose-phosphate ([3]; metabolite ribose-phosphate): -1.1321
Log2(fold change) ribulose-5-phosphate ([3]; metabolite ribulose-5-phosphate): -0.7375
Log2(fold change) serine ([3]; metabolite serine): -0.1379
Log2(fold change) sn-glycerol-3-phosphate ([3]; metabolite sn-glycerol-3-phosphate): 0.0529
Log2(fold change) succinate/Methylmalonic acid ([3]; metabolite succinate/Methylmalonic acid): -0.5504
Log2(fold change) succinyl-CoA/methylmalonyl-CoA ([3]; metabolite succinyl-CoA/methylmalonyl-CoA): 0.0000
Log2(fold change) taurine ([3]; metabolite taurine): 0.3831
Log2(fold change) thiamine ([3]; metabolite thiamine): -0.5873
Log2(fold change) threonine/homoserine ([3]; metabolite threonine/homoserine): -0.5084
Log2(fold change) thymidine ([3]; metabolite thymidine): 0.0000
Log2(fold changes) thymine ([3]; metabolite thymine, log2 fold change): 0.0000
Log2(fold changes) trehalose-6-Phosphate ([3]; metabolite trehalose-6-Phosphate, log2 fold change): 0.0000
Log2(fold changes) tryptophan ([3]; metabolite tryptophan, log2 fold change): -0.7516
Log2(fold changes) tyrosine ([3]; metabolite tyrosine, log2 fold change): -0.2515
Log2(fold changes) uridine ([3]; metabolite uridine, log2 fold change): 0.0000
